Measured values published in ChEMBL document CHEMBL5608234, “Heat Shock Protein 90 Interactome-Mediated Proteolysis Targeting Chimera (HIM-PROTAC) Degrading Glutathione Peroxidase 4 to Trigger Ferroptosis” (J Med Chem, 2024).
pIC50: −log10 of the molar value. Activity calls are given as the source filed them. No cut-off for these calls is given here.

Assays:
HT-1080 [1] = test: Cytotoxicity against human HT-1080 cells incubated for 48 hrs by CCK-8 assay; format: functional, cell-based; conditions: HT-1080, 48 h
HT-1080 [2] = test: HIM-PROTAC activity at GPX4/HSP90/E3 ligase in human HT-1080 cells assessed as reduction in GPX4 level at 0.1 to 3 uM incubated for 24 hrs by Western blotting analysis; format: cell-based; conditions: dose 0.1-3 µM
HT-1080 [3] = test: HIM-PROTAC activity at GPX4/HSP90/E3 ligase in human HT-1080 cells assessed as reduction in GPX4 level at 0.3 uM incubated for 24 hrs by Western blotting analysis relative to control; format: cell-based; design: scale not given: the % may be the effect or the level left
[4] = Toxicity in BALB/c mouse xenografted with human HT-1080 cells assessed as animal death at 25 mg/kg, ip administered once daily measured after 10 days in presence of 2-chloro-N-(3-chloro-4-methoxyphenyl)-N-(2-oxo-2-(phenethylamino)-1-(thiophen-2-yl)ethyl)acetamide; format: organism-based; conditions: in vivo, 240 h, time 10 day
HT-1080 [5] = test: HIM-PROTAC activity at GPX4/HSP90/E3 ligase in human HT-1080 cells assessed as reduction in GPX4 level at 1 uM incubated for 24 hrs in presence of 2-chloro-N-(3-chloro-4-methoxyphenyl)-N-(2-oxo-2-(phenethylamino)-1-(thiophen-2-yl)ethyl)acetamide by Western blotting analysis; format: cell-based
HT-1080 [6] = test: HIM-PROTAC activity at GPX4/HSP90/E3 ligase in human HT-1080 cells assessed as reduction in GPX4 level at 1 uM incubated for 24 hrs by Western blotting analysis; format: cell-based
HT-1080 [7] = test: HIM-PROTAC activity at GPX4/HSP90/E3 ligase in human HT-1080 cells assessed as reduction in GPX4 level at 1 uM incubated for 24 hrs in presence of 6-chloro-9-((4-methoxy-3,5-dimethylpyridin-2-yl)methyl)-9H-purin-2-amine by Western blotting analysis; format: cell-based
HT-1080 [8] = test: Induction of ferroptosis in human HT-1080 cells assessed as fold increase in cytotoxic IC50 incubated for 48 hrs in presence of Fer-1 by CCK-8 assay; format: functional
HT-1080 [9] = test: Cytotoxicity against human HT-1080 cells incubated for 48 hrs in presence of Fer-1 by CCK-8 assay; format: functional, cell-based; conditions: HT-1080, 48 h
[10] = Toxicity in BALB/c mouse xenografted with human HT-1080 cells assessed as animal death at 25 mg/kg, ip administered once daily measured after 10 days in presence of 6-chloro-9-((4-methoxy-3,5-dimethylpyridin-2-yl)methyl)-9H-purin-2-amine; format: organism-based; conditions: in vivo, 240 h, time 10 day

| Compound | pIC50 (HT-1080 [1]) | Activity (HT-1080 [2]) | also measured |
| --- | --- | --- | --- |
| COc1c(C)cnc(Cn2cnc3c(N4CCC(NC(=O)Cn5cc(COc6ccc(N(C(=O)CCl)C(C(=O)NCCc7ccccc7)c7cccs7)cc6Cl)nn5)CC4)nc(N)nc32)c1C (centres undefined) | 5.62 | Active | – |
| COc1c(C)cnc(Cn2cnc3c(N4CCC(C5CCN(C(=O)Cn6cc(COc7ccc(N(C(=O)CCl)C(C(=O)NCCc8ccccc8)c8cccs8)cc7Cl)nn6)CC5)CC4)nc(N)nc32)c1C (centres undefined) | 6.01 | Active | – |
| COc1c(C)cnc(Cn2cnc3c(NCCOCCOCCNC(=O)Cn4cc(COc5ccc(N(C(=O)CCl)C(C(=O)NCCc6ccccc6)c6cccs6)cc5Cl)nn4)nc(N)nc32)c1C (centres undefined) | 5.59 | Active | – |
| COc1c(C)cnc(Cn2cnc3c(NCCOCCOCCOCCNC(=O)Cn4cc(COc5ccc(N(C(=O)CCl)C(C(=O)NCCc6ccccc6)c6cccs6)cc5Cl)nn4)nc(N)nc32)c1C (centres undefined) | 5.49 | Active | – |
| Nc1ncnc2c1nc(Sc1cc3c(cc1I)OCO3)n2CCOCCOCCNC(=O)Cn1cc(COc2ccc(N(C(=O)CCl)C(C(=O)NCCc3ccccc3)c3cccs3)cc2Cl)nn1 (centres undefined) | 5.82 | Active | – |
| COc1c(C)cnc(Cn2cnc3c(NCCC4CCN(C(=O)Cn5cc(COc6ccc(N(C(=O)CCl)C(C(=O)NCCc7ccccc7)c7cccs7)cc6Cl)nn5)CC4)nc(NC(C)=O)nc32)c1C (centres undefined) | 4.81 | Active | – |
| COc1c(C)cnc(Cn2cnc3c(N4CCN(C(=O)Cn5cc(COc6ccc(N(C(=O)CCl)C(C(=O)NCCc7ccccc7)c7cccs7)cc6Cl)nn5)CC4)nc(N)nc32)c1C (centres undefined) | 5.39 | Active | – |
| Nc1ncnc2c1nc(Sc1cc3c(cc1I)OCO3)n2CCNC(=O)CCCCCNC(=O)Cn1cc(COc2ccc(N(C(=O)CCl)C(C(=O)NCCc3ccccc3)c3cccs3)cc2Cl)nn1 (centres undefined) | 4.38 | Active | – |
| Nc1ncnc2c1nc(Sc1cc3c(cc1I)OCO3)n2CCCCCNC(=O)Cn1cc(COc2ccc(N(C(=O)CCl)C(C(=O)NCCc3ccccc3)c3cccs3)cc2Cl)nn1 (centres undefined) | 5.89 | Active | Activity (HT-1080 [3]): < 50% |
| COc1c(C)cnc(Cn2cnc3c(N4CCC(N5CCN(C(=O)Cn6cc(COc7ccc(N(C(=O)CCl)C(C(=O)NCCc8ccccc8)c8cccs8)cc7Cl)nn6)CC5)CC4)nc(N)nc32)c1C (centres undefined) | 5.85 | Active | – |
| COc1c(C)cnc(Cn2cnc3c(Cl)nc(N)nc32)c1C [BIIB021] | 4.79 | – | Activity [4]: Toxic; Activity (HT-1080 [5]): inactive; Activity (HT-1080 [6]): inactive |
| O=C1CCC(N2C(=O)c3cccc(NCCOCCOCCOCCn4cc(COc5ccc(N(C(=O)CCl)C(C(=O)NCCc6ccccc6)c6cccs6)cc5Cl)nn4)c3C2=O)C(=O)N1 (centres undefined) | 6.31 | – | Activity (HT-1080 [6]): Active |
| COc1c(C)cnc(Cn2cnc3c(NCCOCCOCCOCCOCCOCCn4cc(COc5ccc(N(C(=O)CCl)C(C(=O)NCCc6ccccc6)c6cccs6)cc5Cl)nn4)nc(N)nc32)c1C (centres undefined) | 5.46 | Active | – |
| COc1c(C)cnc(Cn2cnc3c(NCCOCCNC(=O)Cn4cc(COc5ccc(N(C(=O)CCl)C(C(=O)NCCc6ccccc6)c6cccs6)cc5Cl)nn4)nc(N)nc32)c1C (centres undefined) | 5.62 | Active | – |
| Nc1ncnc2c1nc(Sc1cc3c(cc1I)OCO3)n2CCNC(=O)Cn1cc(COc2ccc(N(C(=O)CCl)C(C(=O)NCCc3ccccc3)c3cccs3)cc2Cl)nn1 (centres undefined) | 6.05 | Active | – |
| COc1c(C)cnc(Cn2cnc3c(NCCOCCOCCOCCOCCNC(=O)Cn4cc(COc5ccc(N(C(=O)CCl)C(C(=O)NCCc6ccccc6)c6cccs6)cc5Cl)nn4)nc(N)nc32)c1C (centres undefined) | 4.82 | Active | – |
| COc1c(C)cnc(Cn2cnc3c(NCCCCNC(=O)Cn4cc(COc5ccc(N(C(=O)CCl)C(C(=O)NCCc6ccccc6)c6cccs6)cc5Cl)nn4)nc(N)nc32)c1C (centres undefined) | 5.96 | Active | – |
| COc1c(C)cnc(Cn2cnc3c(NCCOCCOCCn4cc(COc5ccc(N(C(=O)CCl)C(C(=O)NCCc6ccccc6)c6cccs6)cc5Cl)nn4)nc(N)nc32)c1C (centres undefined) | 6.00 | Active | – |
| Nc1ncnc2c1nc(Sc1cc3c(cc1I)OCO3)n2CCNC(=O)CCNC(=O)Cn1cc(COc2ccc(N(C(=O)CCl)C(C(=O)NCCc3ccccc3)c3cccs3)cc2Cl)nn1 (centres undefined) | 4.25 | Active | – |
| COc1ccc(N(C(=O)CCl)C(C(=O)NCCc2ccccc2)c2cccs2)cc1Cl (centres undefined) | 6.12 | – | Activity (HT-1080 [7]): inactive; fold change (FC) (HT-1080 [8]): 3; Activity (HT-1080 [6]): inactive; pIC50 (HT-1080 [9]): 5.70; Activity [10]: Toxic |
| NCCC1CCN(C(=O)Cn2cc(COc3ccc(N(C(=O)CCl)C(C(=O)NCCc4ccccc4)c4cccs4)cc3Cl)nn2)CC1 (centres undefined) | 5.08 | Active | – |
